We go through 26 compounds from patent US20240294508A1, “RIP1 MODULATORS INCLUDING AZETIDINE CYCLIC UREAS, PREPARATIONS, AND USES THEREOF” (SIRONAX LTD., priority 2021, published 2024).

What is called EC50 is the midpoint of the concentration-response curve.

This assay deals with HT-29 cells. Nature of the assay: HT29 cells 0FBS assay in vitro: TNF-α/SMAC mimetic/zVAD-FMK induced necroptosis, CellTiter-Glo cell viability (RIP1 inhibitory activity). Format: cell-based. The conditions noted are these: Homo sapiens, FBS free medium, TNF-α (10 ng/ml) + SMAC mimetic (6 uM) + zVAD-FMK (10 μM), 20 hours, geometric mean EC50. Put shortly:
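HT-29 cells (5,000/well, overnight) switched to FBS-free McCOY's 5A with TNF-α (10 ng/ml), SMAC mimetic (6 uM) and zVAD-FMK (10 μM) to drive necroptosis, plus compound, for 20 hours at 37° C. Viability read by CellTiter-Glo luminescence; geometric mean EC50 from 10-point duplicate dose-response.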
(In general: In ATP-based viability assays light output follows the ATP content of the culture.)
Take `Cc1nn(-c2cc(OC3CN(C(=O)N4N=CC[C@H]4c4cc(F)cc(F)c4F)C3)c(F)cn2)c(C)c1C(=O)O` [Compound 104, (S)-1-(5-fluoro-4-((1-(5-(2,3,5-trifluorophenyl)-4,5-dihydro-1H-pyrazole-1-carbonyl)azetidin-3-yl)oxy)pyridin-2-yl)-3,5-dimethyl-1H-pyrazole-4-carboxylic acid]: the EC50 was 0.1 to 100 nM.
For `Cc1nn(-c2cc(OC3CN(C(=O)N4N=CC[C@H]4c4cccc(F)c4)C3)c(F)cn2)c(C)c1C(=O)O` [Compound 82, (S)-1-(5-fluoro-4-((1-(5-(3-fluorophenyl)-4,5-dihydro-1H-pyrazole-1-carbonyl)azetidin-3-yl)oxy)pyridin-2-yl)-3,5-dimethyl-1H-pyrazole-4-carb oxylic acid], the EC50 was 0.1 to 100 nM.
To `Cc1cnn(C)c1-c1cc(OC2CN(C(=O)N3N=CC[C@H]3c3cc(F)cc(C#N)c3)C2)c(F)cn1` [Compound 11, (S)-3-(1-(3-((2-(1,4-dimethyl-1H-pyrazol-5-yl)-5-fluoropyridin-4-yl)oxy)azetidine-1-carbonyl)-4,5-dihydro-1H-pyrazol-5-yl)-5-fluorobenzonitrile] belongs 0.1 to 100 nM; to `Cn1ncc(F)c1-c1cc(OC2CN(C(=O)N3N=CC[C@H]3c3cncc(F)c3)C2)c(F)cn1` [Compound 45, (S)-(3-((5-fluoro-2-(4-fluoro-1-methyl-1H-pyrazol-5-yl)pyridin-4-yl)oxy)azetidin-1-yl)(5-(5-fluoropyridin-3-yl)-4,5-dihydro-1H-pyrazol-1-yl) methanone], 0.1 to 100 nM.
To `Cn1ncc(-c2cc(OC3CN(C(=O)N4N=CC[C@H]4c4cc(F)cc(C#N)c4)C3)c(F)cn2)n1` [Compound 15, (S)-3-fluoro-5-(1-(3-((5-fluoro-2-(2-methyl-2H-1,2,3-triazol-4-yl)pyridin-4-yl)oxy)azetidine-1-carbonyl)-4,5-dihydro-1H-pyrazol-5-yl)benzonitrile] belongs 100 to 1000 nM.
The same measure for `CNC(=O)c1c(C)nn(-c2cc(OC3CN(C(=O)N4N=CC[C@H]4c4ccccc4)C3)c(F)cn2)c1C` [Compound 78]: 0.1 to 100 nM; for `Cc1cncc(C2CC=NN2C(=O)N2CC(Oc3cc(-c4c(C)cnn4C)ncc3F)C2)c1` (centres unmarked) [Compound 101, (3-((2-(1,4-dimethyl-1H-pyrazol-5-yl)-5-fluoropyridin-4-yl)oxy)azetidin-1-yl)(5-(5-methylpyridin-3-yl)-4,5-dihydro-1H-pyrazol-1-yl)methanone]: 0.1 to 100 nM.
Turning to `Cc1cnc([C@H]2CC=NN2C(=O)N2CC(Oc3cc(-c4c(C)cnn4C)ncc3F)C2)s1` [Compound 137, (R)-(3-((2-(1,4-dimethyl-1H-pyrazol-5-yl)-5-fluoropyridin-4-yl)oxy)azetidin-1-yl)(5-(5-methylthiazol-2-yl)-4,5-dihydro-1H-pyrazol-1-yl)methanone], the half-maximal effective concentration (EC50) lay within 1000 to 10000 nM.
To `Cc1n[nH]c(C)c1-c1cc(OC2CN(C(=O)N3N=CC[C@H]3c3cc(F)cc(C#N)c3)C2)c(F)cn1` [Compound 19, (S)-3-(1-(3-((2-(3,5-dimethyl-1H-pyrazol-4-yl)-5-fluoropyridin-4-yl)oxy)azetidine-1-carbonyl)-4,5-dihydro-1H-pyrazol-5-yl)-5-fluorobenzonitrile] belongs 0.1 to 100 nM; to `Cc1cc(-c2cc(OC3CN(C(=O)N4N=CC[C@H]4c4cncc(F)c4)C3)c(F)cn2)n(C)n1` [Compound 29, (S)-(3-((2-(1,3-dimethyl-1H-pyrazol-5-yl)-5-fluoropyridin-4-yl)oxy)azetidin-1-yl)(5-(5-fluoropyridin-3-yl)-4,5-dihydro-1H-pyrazol-1-yl)methanone], 0.1 to 100 nM; to `Cc1c(N)nn(C)c1-c1cc(OC2CN(C(=O)N3N=CCC3c3cc(F)cc(F)c3F)C2)c(F)cn1` (centres unmarked) [Compound 115, (3-((2-(3-amino-1,4-dimethyl-1H-pyrazol-5-yl)-5-fluoropyridin-4-yl)oxy)azetidin-1-yl)(5-(2,3,5-trifluorophenyl)-4,5-dihydro-1H-pyrazol-1-yl) methanone], 0.1 to 100 nM.
As for `Cc1nsc(C)c1-c1cc(OC2CN(C(=O)N3N=CC[C@H]3c3cc(F)cc(C#N)c3)C2)c(F)cn1` [Compound 31, (S)-3-(1-(3-((2-(3,5-dimethylisothiazol-4-yl)-5-fluoropyridin-4-yl)oxy)azetidine-1-carbonyl)-4,5-dihydro-1H-pyrazol-5-yl)-5-fluorobenzonitrile], the EC50 was 0.1 to 100 nM.
The same measure for `Cc1ncn(C)c1-c1cc(OC2CN(C(=O)N3N=CC[C@H]3c3cc(F)cc(C#N)c3)C2)c(F)cn1` [Compound 22, (S)-3-(1-(3-((2-(1,4-dimethyl-1H-imidazol-5-yl)-5-fluoropyridin-4-yl)oxy)azetidine-1-carbonyl)-4,5-dihydro-1H-pyrazol-5-yl)-5-fluorobenzonitrile]: 0.1 to 100 nM; for `Cn1ncc(C#N)c1-c1csc(OC2CN(C(=O)N3N=CC[C@H]3c3cc(F)cc(F)c3)C2)n1` [Compound 150, (S)-5-(2-((1-(5-(3,5-difluorophenyl)-4,5-dihydro-1H-pyrazole-1-carbonyl)azetidin-3-yl)oxy)thiazol-4-yl)-1-methyl-1H-pyrazole-4-carbonitrile]: 0.1 to 100 nM.
The same measure for `Cc1cnc(C2CC=NN2C(=O)N2CC(Oc3nc(-c4ccnn4C)c(F)cc3F)C2)s1` (centres unmarked) [Compound 139, (3-((3,5-difluoro-6-(1-methyl-1H-pyrazol-5-yl)pyridin-2-yl)oxy)azetidin-1-yl)(5-(5-methylthiazol-2-yl)-4,5-dihydro-1H-pyrazol-1-yl)methanone]: 0.1 to 100 nM.
The same measure for `Cc1nn(-c2cc(OC3CN(C(=O)N4N=CCC4c4cc(F)cc(Cl)c4)C3)c(F)cn2)c(C)c1C(N)=O` (centres unmarked) [Compound 117, 1-(4-((1-(5-(3-chloro-5-fluorophenyl)-4,5-dihydro-1H-pyrazole-1-carbonyl)azetidin-3-yl)oxy)-5-fluoropyridin-2-yl)-3,5-dimethyl-1H-pyrazole-4-carboxamide]: 0.1 to 100 nM.
For the compound `Cc1cc(F)cc(C2CC=NN2C(=O)N2CC(Oc3cc(-n4nc(C)c(C(N)=O)c4C)ncc3F)C2)c1` (centres unmarked) [Compound 118, 1-(5-fluoro-4-((1-(5-(3-fluoro-5-methylphenyl)-4,5-dihydro-1H-pyrazole-1-carbonyl)azetidin-3-yl)oxy)pyridin-2-yl)-3,5-dimethyl-1H-pyrazole-4-carboxamide], the EC50 was 0.1 to 100 nM.
To `Cn1ncc(C#N)c1-c1ncc(F)c(OC2CN(C(=O)N3N=CC[C@H]3c3cc(F)cc(C#N)c3)C2)n1` [Compound 8, (S)-5-(4-((1-(5-(3-cyano-5-fluorophenyl)-4,5-dihydro-1H-pyrazole-1-carbonyl)azetidin-3-yl)oxy)-5-fluoropyrimidin-2-yl)-1-methyl-1H-pyrazole-4-carbonitrile] belongs 0.1 to 100 nM; to `Cc1ncc(C2CC=NN2C(=O)N2CC(Oc3nc(-c4c(C)cnn4C)ncc3F)C2)s1` (centres unmarked) [Compound 109, (3-((2-(1,4-dimethyl-1H-pyrazol-5-yl)-5-fluoropyrimidin-4-yl)oxy)azetidin-1-yl)(5-(2-methylthiazol-5-yl)-4,5-dihydro-1H-pyrazol-1-yl)methanone], 0.1 to 100 nM; to `Cc1cc(F)cc([C@@H]2CC=NN2C(=O)N2CC(Oc3cc(-n4nc(C)c(C(=O)O)c4C)ncc3F)C2)c1` [Compound 142, (S)-1-(5-fluoro-4-((1-(5-(3-fluoro-5-methylphenyl)-4,5-dihydro-1H-pyrazole-1-carbonyl)azetidin-3-yl)oxy)pyridin-2-yl)-3,5-dimethyl-1H-pyrazole-4-carboxylic acid], 0.1 to 100 nM.
Turning to `Cc1nn(-c2cc(OC3CN(C(=O)N4N=CC[C@H]4c4cccc(F)c4)C3)c(F)cn2)c(C)c1S(N)(=O)=O` [Compound 114, (S)-1-(5-fluoro-4-((1-(5-(3-fluorophenyl)-4,5-dihydro-1H-pyrazole-1-carbonyl)azetidin-3-yl)oxy)pyridin-2-yl)-3,5-dimethyl-1H-pyrazole-4-sulfonamide], the EC50 lay in the range of 0.1 to 100 nM.
To `Cc1nc(C2CC=NN2C(=O)N2CC(Oc3cc(-c4c(C)cnn4C)ncc3F)C2)co1` (centres unmarked) [Compound 90, (3-((2-(1,4-dimethyl-1H-pyrazol-5-yl)-5-fluoropyridin-4-yl)oxy)azetidin-1-yl)(5-(2-methyloxazol-4-yl)-4,5-dihydro-1H-pyrazol-1-yl)methanone] belongs 0.1 to 100 nM; to `Cc1cnn(C)c1-c1ccc(F)c(OC2CN(C(=O)N3N=CC[C@H]3c3cc(F)cc(C#N)c3)C2)c1` [Compound 60, (S)-3-(1-(3-(5-(1,4-dimethyl-1H-pyrazol-5-yl)-2-fluorophenoxy)azetidine-1-carbonyl)-4,5-dihydro-1H-pyrazol-5-yl)-5-fluorobenzonitrile], 0.1 to 100 nM.
To `Cc1nc([C@@H]2CC=NN2C(=O)N2CC(Oc3cc(-c4c(C)cnn4C)ncc3F)C2)cs1` [Compound 120, (S)-(3-((2-(1,4-dimethyl-1H-pyrazol-5-yl)-5-fluoropyridin-4-yl)oxy)azetidin-1-yl)(5-(2-methylthiazol-4-yl)-4,5-dihydro-1H-pyrazol-1-yl)methanone] belongs 0.1 to 100 nM; to `Cc1c(C#N)nn(C)c1-c1cc(OC2CN(C(=O)N3N=CC[C@H]3c3cc(F)cc(C#N)c3)C2)c(F)cn1` [Compound 51, (S)-5-(4-((1-(5-(3-cyano-5-fluorophenyl)-4,5-dihydro-1H-pyrazole-1-carbonyl)azetidin-3-yl)oxy)-5-fluoropyridin-2-yl)-1,4-dimethyl-1H-pyrazole-3-carbonitrile], 0.1 to 100 nM; to `Cc1cnn(C)c1-c1cc(OC2CN(C(=O)N3N=CCC3c3cc(F)cc(F)c3F)C2)c(F)cn1` (centres unmarked) [Compound 116, (3-((2-(1,4-dimethyl-1H-pyrazol-5-yl)-5-fluoropyridin-4-yl)oxy)azetidin-1-yl)(5-(2,3,5-trifluorophenyl)-4,5-dihydro-1H-pyrazol-1-yl)methanone], 0.1 to 100 nM.
